According to US11136324B2, “Substituted imidazoles as apoptosis signal regulating kinase 1 inhibitors” (Jiangsu Hansoh Pharmaceutical Group Co., Ltd., priority 2017, dated 2021):
pIC50: −log10 of the molar value.

Experiments:
[1] = target: ASK1 kinase (Homo sapiens (Human), UniProt Q99683); test: ASK1 enzymatic test (TR-FRET); format: biochemical; settings: ASK1 kinase activity
Method: In this test, the fluorescence-resonance energy transfer (TR-FRET) method was used to determine the inhibition effect of the test compounds on ASK1 kinase activity, and the half maximal inhibitory concentration IC50 of the compounds on ASK1 kinase activity was obtained.
1) 1˜5 μL of ASK1 enzyme solution was added to a 384-well plate, and the final concentration of the enzyme was 0.220 nM.
2) 1˜5 μL of gradient-diluted compound solution was added.
3) 1˜5 μL of a substrate mixture containing substrate polypeptides (final concentration: 100˜5000 nM) and ATP (final concentration: 100˜1000 uM) were added.
4) The mixture was incubated at room temperature for 0.5 to 5 hours.
5) 10 μL of EDTA and test solution containing labeled antibody were added, and the plate was incubated at room temperature for 2 to 24 hours.
6) The fluorescence signal value of each well was determined by a microplate reader at about 615 nm and 665 nm.
7) The inhibition rate was calculated by the fluorescence signal value.
8) The IC50 of the compound was obtained by curve fitting according to the inhibition rate at different concentrations.

[2] = Pharmacokinetic (PK) assay in mice; format: in vivo; settings: Balb/c male mice, single intragastric administration, 5 mg/kg, plasma; for AUC(0-t) / AUC(0-inf) / half-life / MRT / Cmax: mouse, po; for AUC(0-t): read-out: Area under curve AUC0-t; for AUC(0-inf): read-out: Area under curve AUC0-∞; for half-life: read-out: Half-life t1/2 (converted); for MRT: read-out: Mean residence time MRT; for Cmax: read-out: Plasma concentration Cmax
Method: 2. Pharmacokinetic (PK) Assay in Mice
The pharmacokinetic test of the preferred examples of the present invention in mice was carried out in Balb/c male mice (Shanghai Jiesijie Laboratory Animal Co., LTD).
Administration mode: single intragastric administration.
Administration dosage: 5 mg/10 ml/kg.
Formulation: 0.5% CMC-Na, ultrasonic dissolution.
Sampling points: 0.5, 1, 2, 4, 6, 8 and 24 hours after administration.
1) 0.1 mL of blood was taken from the orbit, placed in a K2EDTA tube, and centrifuged for 5˜20 min at room temperature at 1000˜3000×g to separate the plasma, which was then stored at −80° C.
2) 160 μL of acetonitrile was added to 40 μL of plasma sample for precipitation, and then the mixture was centrifuged for 5˜20 minutes at 500˜2000×g.
3) 100 μL, of processed supernatant was taken and analyzed by LC/MS/MS assay to determine the concentration of the test compound.
LC-MS/MS Assay: • Liquid chromatography condition: Shimadzu LC-20AD pump • Mass spectrometry condition: AB Sciex API 4000 mass spectrometer • Chromatographic column: phenomenex Gemiu 5 μm C18 50×4.6 mm • Mobile phase: solution A was 0.1% aqueous formic acid solution, and solution B was acetonitrile • Flow rate: 0.8 mL/min • Elution time: 0-3.5 minutes gradient elution
The main parameters were calculated using WinNonlin 6.1.

[3] = tested on: non-alcoholic steatohepatitis mice induced by HFD (high fat diet)+CCl4; test: Effect on serum ALT and AST levels of non-alcoholic steatohepatitis mice induced by HFD+CCl4; format: in vivo, C57BL/6 mice; set-up: concentration or dose not given beside the values; settings: oral once a day for 28 days, versus solvent control group
Source text: 3. The effect of the compounds of the present invention on the ALT and AST levels of non-alcoholic steatohepatitis mice induced by HFD (high fat diet)+CCl4
The object of this test example is to determine whether the compounds of the present invention can down-regulate the ALT and AST levels in the serum of non-alcoholic steatohepatitis mice or not.
C57BL/6 mice were adaptively fed in a SPF (specific pathogen free) barrier for 3 to 7 days, and then fed with HFD feed with a feeding cycle of 8 weeks. At the fifth week of HFD feeding, the HFD-induced mice were randomly grouped according to body weight, and orally administrated with CCl4 twice a week for 4 weeks. At the day of modeling with CCl4, the test compounds were orally administrated once a day continuously for 28 days. The solvent control group was administrated with the corresponding solvent of the test compounds with an administration volume of 10 mL/kg. The mice were euthanized with CO2 48 hours after the last administration of CCl4, and the non-anticoagulated venous blood was collected from the heart. The whole blood was left to stand at room temperature for at least 30 minutes, and then centrifuged for 5 minutes at 4° C. at 5000 rpm to separate the serum. The serum was dispensed into two portions in 1.5 mL EP tubes, and stored at −80° C. for later use.
The ALT and AST levels in mice serum were determined using the alanine aminotransfease (ALT/GPT) kit and aspartate aminotransferase (AST/GOT) kit. The ALT (or AST) test substrate solution was preheated in a 37° C. incubator; 20 μL of substrate solution were pipetted into a 96-well plate, and 5 μL of serum were pipetted into the 96-well plate as test well. After mixing well, the plate was sealed using a sealing film, and placed into the 37° C. incubator to incubate for 30 min. The ALT (or AST) standard curve was formulated, and 25 μL of which were pipetted into the 96-well plate; 20 μL of […] were pipetted into the 96-well plate as control well; 20 μL of 2,4-dinitrophenylhydrazine solution were added to each well. After mixing well, the plate was sealed using a sealing film, and placed into the 37° C. incubator to incubate for 20 min. 200 μL of 0.4 M NaOH solution were added to each well. The plate was placed on a shaker to shake for 15 min, and then measured on the BioTek Synergy H1 instrument using OD detection program at a wavelength of 510 nm. The absolute OD value was calculated from the OD value of each well. Absolute OD value=OD value of measured well−OD value of control well. The absolute OD value was taken into the standard curve to obtain the ALT (or AST) content of the sample. Samples that exceed the standard curve range should be re-tested after diluting the serum to an appropriate concentration. Data processing: (% ALT reduction rate)=(solvent control group−test compound)/solvent control group×100%; (% AST reduction rate)=(solvent control group−test compound)/solvent control group×100%.

ASK1 kinase, sequence (Q99683 whole entry): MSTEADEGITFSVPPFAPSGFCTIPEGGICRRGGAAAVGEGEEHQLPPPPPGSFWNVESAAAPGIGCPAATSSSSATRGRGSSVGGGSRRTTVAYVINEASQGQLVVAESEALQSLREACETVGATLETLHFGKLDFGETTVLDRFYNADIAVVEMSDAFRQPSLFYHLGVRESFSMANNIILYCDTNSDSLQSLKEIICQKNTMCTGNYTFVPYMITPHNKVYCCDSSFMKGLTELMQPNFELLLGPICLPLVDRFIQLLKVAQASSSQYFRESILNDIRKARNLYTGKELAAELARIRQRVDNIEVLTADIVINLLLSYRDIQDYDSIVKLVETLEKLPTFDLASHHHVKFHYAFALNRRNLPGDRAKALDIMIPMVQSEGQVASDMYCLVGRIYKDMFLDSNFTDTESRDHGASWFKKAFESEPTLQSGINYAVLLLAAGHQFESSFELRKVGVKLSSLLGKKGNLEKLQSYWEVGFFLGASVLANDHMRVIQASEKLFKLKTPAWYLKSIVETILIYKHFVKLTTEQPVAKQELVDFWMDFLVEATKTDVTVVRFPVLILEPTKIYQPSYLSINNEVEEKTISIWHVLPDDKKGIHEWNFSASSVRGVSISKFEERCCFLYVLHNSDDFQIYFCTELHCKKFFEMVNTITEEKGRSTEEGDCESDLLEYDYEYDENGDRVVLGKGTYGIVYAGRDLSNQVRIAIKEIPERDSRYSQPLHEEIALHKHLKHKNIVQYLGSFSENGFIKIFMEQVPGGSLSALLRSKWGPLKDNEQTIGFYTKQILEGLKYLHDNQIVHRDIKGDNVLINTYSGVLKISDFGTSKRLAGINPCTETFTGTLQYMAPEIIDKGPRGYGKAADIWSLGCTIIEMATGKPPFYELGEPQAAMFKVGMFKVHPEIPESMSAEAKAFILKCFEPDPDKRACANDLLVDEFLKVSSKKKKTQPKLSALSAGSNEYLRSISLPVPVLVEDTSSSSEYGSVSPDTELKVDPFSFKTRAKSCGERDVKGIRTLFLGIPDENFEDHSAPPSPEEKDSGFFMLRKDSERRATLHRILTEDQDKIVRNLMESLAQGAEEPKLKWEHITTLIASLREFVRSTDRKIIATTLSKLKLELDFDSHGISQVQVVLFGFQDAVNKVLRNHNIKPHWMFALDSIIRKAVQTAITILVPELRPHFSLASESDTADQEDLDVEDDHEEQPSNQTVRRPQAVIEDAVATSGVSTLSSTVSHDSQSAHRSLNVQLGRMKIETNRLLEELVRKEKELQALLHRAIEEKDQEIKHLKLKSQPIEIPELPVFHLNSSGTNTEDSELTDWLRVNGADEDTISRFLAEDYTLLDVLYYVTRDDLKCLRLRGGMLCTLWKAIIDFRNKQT

Row | pIC50 [1] | Peak time tmax [2] [h] | AUC(0-t) [2] [ng·h/mL] | AUC(0-inf) [2] [ng·h/mL] | half-life [2] [h] | MRT [2] [h] | Cmax [2] [ng/mL] | Structure (SMILES) | ALT(U/L) reduction rate (%) [3] [%] | AST(U/L) reduction rate (%) [3] [%]
1 | 9.00 | 0.5 | 32400 | 32400 | 1.6 | 3 | 8990 | Cc1cc(F)c(C(=O)Nc2cccc(-c3nnc4n3C(C)(C)CC4)n2)cc1-n1cnc(C2CC2)c1 [Example 10, 5-(4-Cyclopropyl-1H-imidazol-1-yl)-N-(6-(5,5-dimethyl-6,7-dihydro-5H-pyrrolo[2,1-c][1,2,4]triazol-3-yl)pyridin-2-yl)-2-fluoro-4-methylbenzamide] | 50 | 46
2 | 8.85 |  |  |  |  |  |  | Cc1cc(F)c(C(=O)Nc2cccc(-c3nnc4n3[C@H](C)CC4)n2)cc1-n1cnc(C(C)(C)C)c1 [Example 15, (R)-5-(4-(tert-Butyl)-1H-imidazol-1-yl)-2-fluoro-4-methyl-N-(6-(5-methyl-6,7-dihydro-5H-pyrrolo[2,1-c][1,2,4]triazol-3-yl)pyridin-2-yl)benzamide] | 54 | 58
3 | 8.46 | 0.5 | 43900 | 48000 | 2.1 | 3.4 | 11700 | C=C[C@@H]1CCc2nnc(-c3cccc(NC(=O)c4cc(-n5cnc(C6CC6)c5)c(C)cc4F)n3)n21 [Example 37, (S)-5-(4-Cyclopropyl-1H-imidazol-1-yl)-2-fluoro-4-methyl-N-(6-(5-vinyl-6,7-dihydro-5H-pyrrolo[2,1-c][1,2,4]triazol-3-yl)pyridin-2-yl)benzamide] | 57 | 62
4 | 8.72 | 0.5 | 26800 | 28300 | 1.7 | 2.7 | 10700 | Cc1cc(F)c(C(=O)Nc2cccc(-c3nnc4n3[C@H](C(F)(F)F)CC4)n2)cc1-n1cnc(C2CC2)c1 [Example 40, (S)-5-(4-Cyclopropyl-1H-imidazol-1-yl)-2-fluoro-4-methyl-N-(6-(5-(trifluoromethyl)-6,7-dihydro-5H-pyrrolo[2,1-c][1,2,4]triazol-3-yl)pyridin-2-yl)benzamide] | 50 | 65
5 | 8.72 | 0.5 | 80900 | 81900 | 3.9 | 5.3 | 12200 | C#C[C@@H]1CCc2nnc(-c3cccc(NC(=O)c4cc(-n5cnc(C6CC6)c5)c(C)cc4F)n3)n21 [Example 43, (S)-5-(4-Cyclopropyl-1H-imidazol-1-yl)-N-(6-(5-ethynyl-6,7-dihydro-5H-pyrrolo[2,1-c][1,2,4]triazol-3-yl)pyridin-2-yl)-2-fluoro-4-methylbenzamide] | 65 | 58
6 | 8.72 | 0.5 | 31500 | 31500 | 1.4 | 2.9 | 9330 | CC[C@@H]1CCc2nnc(-c3cccc(NC(=O)c4cc(-n5cnc(C6CC6)c5)c(C)cc4F)n3)n21 [Example 55, (R)-5-(4-Cyclopropyl-1H-imidazol-1-yl)-N-(6-(5-ethyl-6,7-dihydro-5H-pyrrolo[2,1-c][1,2,4]triazol-3-yl)pyridin-2-yl)-2-fluoro-4-methylbenzamide] | 56 | 55
7 | 8.72 | 1 | 68600 | 68800 | 2.7 | 4.5 | 11400 | Cc1cc(F)c(C(=O)Nc2cccc(-c3nnc4n3C3(CC4)CC3)n2)cc1-n1cnc(C2CC2)c1 [Example 61, 5-(4-Cyclopropyl-1H-imidazol-1-yl)-N-(6-(6′,7′-dihydrospiro[cyclopropane-1,5′-pyrrolo[2,1-c][1,2,4]triazol]-3′-yl)pyridin-2-yl)-2-fluoro-4-methylbenzamide] | 50 | 54
8 | 8.26 |  |  |  |  |  |  | Cc1cc2c(cc1-n1cnc(C3CC3)c1)C(=O)N(c1cccc(-c3nnc4n3C3(CC4)CC3)n1)C2 [Example 64, 6-(4-Cyclopropyl-1H-imidazol-1-yl)-2-(6-(6′,7′-dihydrospiro[cyclopropane-1,5′-pyrrolo[2,1-c][1,2,4]triazol]-3′-yl)pyridin-2-yl)-5-methylisoindolin-1-one] | 51 | 47
9 | 8.03 |  |  |  |  |  |  | Cc1cc2c(cc1-n1cnc(C3CC3)c1)C(=O)N(c1cccc(-c3nnc4n3[C@H](C(F)(F)F)CC4)n1)C2 [Example 65, (S)-6-(4-Cyclopropyl-1H-imidazol-1-yl)-5-methyl-2-(6-(5-(trifluoromethyl)-6,7-dihydro-5H-pyrrolo[2,1-c][1,2,4]triazol-3-yl)pyridin-2-yl)isoindolin-1-one] | 46 | 52
